From patent US20060252807A1, “Novel ortho-terphenyl inhibitors of p38 kinase and methods of treating inflammatory disorders” (Kalypsys, Inc., priority 2005, published 2006) come the findings set out here.

The structures appear in SMILES notation.

T1 sequence (Q16539 whole entry): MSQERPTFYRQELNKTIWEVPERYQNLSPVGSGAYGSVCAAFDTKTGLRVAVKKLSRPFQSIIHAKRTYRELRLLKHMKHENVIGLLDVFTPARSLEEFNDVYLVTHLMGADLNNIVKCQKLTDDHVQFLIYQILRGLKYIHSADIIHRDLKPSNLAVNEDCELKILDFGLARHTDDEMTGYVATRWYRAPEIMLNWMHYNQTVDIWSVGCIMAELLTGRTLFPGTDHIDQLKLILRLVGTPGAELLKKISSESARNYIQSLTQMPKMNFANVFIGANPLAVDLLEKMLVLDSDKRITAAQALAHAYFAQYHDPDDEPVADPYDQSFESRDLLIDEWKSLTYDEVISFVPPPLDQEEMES

The first experiment has as its target T1, active p38 alpha enzyme (Upstate Biotechnology) (Homo sapiens, UniProt Q16539).
T1 construct: purchased Upstate Biotechnology
In words: p38α biochemical assay (ATP turnover, luminescent detection, Cambrex PKlight). The conditions noted are these: p38α biochemical assay, Table 1 Biological Activity. An outline of the steps:
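Luminescent ATP-depletion readout measures total ATP turnover by p38α phosphorylating whole MapkapK2 protein. ATP 1.4 uM final; 30C, 2 h. Compounds delivered from DMSO.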
For `CC(C)NC(=O)c1csc(-c2c(-c3ccc(F)cc3)noc2CNC(=O)C2CCCCN2C(=O)OC(C)(C)C)n1` (stereo not drawn) [Example 786], the IC50 was more than 1 µM.

For `CC(C)NC(=O)c1csc(-c2oc(CNC(=O)Cc3ccc(C(F)(F)F)cc3)nc2-c2ccc(F)cc2)n1` [Example 279], the half-maximal inhibitory concentration (IC50) was more than 1 µM. The same measure, in the same setting: the figure for `CC(C)NC(=O)c1csc(-c2oc(CN3CCN(C(=O)c4ccc(Cl)cc4[N+](=O)[O-])CC3)nc2-c2ccc(F)cc2)n1` [Example 510] is more than 1 µM; for `CC(C)NC(=O)c1csc(-c2oc(CNC(=O)c3ccc(C(F)(F)F)cc3[N+](=O)[O-])nc2-c2ccc(F)cc2)n1` [Example 319] it is not above 1 µM. Still for that read-out and setting: for `CC(C)NC(=O)c1csc(-c2oc(CNC(=O)c3ccc(C#N)cc3)nc2-c2ccc(F)cc2)n1` [Example 129] the value was not above 1 µM; for `CC(C)NC(=O)c1csc(-c2c(-c3ccc(F)cc3)noc2CNC(=O)C(C)c2ccc(O)cc2)n1` (stereo not drawn) [Example 658], more than 1 µM. The compound `COc1cc(C(=O)NCc2nc(-c3ccc(F)cc3)c(-c3nc(C(=O)NC(C)C)cs3)o2)c([N+](=O)[O-])cc1OC` [Example 307] gave an IC50 not above 1 µM. Same read-out and setting: the figure for `CC(C)NC(=O)c1csc(-c2c(-c3ccc(F)cc3)noc2CNC(=O)C(NC(=O)OC(C)(C)C)C(C)C)n1` (stereo not drawn) [Example 773] is more than 1 µM. In the case of `CC(C)NC(=O)c1csc(-c2c(-c3ccc(F)cc3)noc2CNC(=O)c2ccc(F)cc2)n1` [Example 601], the IC50 was more than 1 µM.

On to `COc1ccc([N+](=O)[O-])c(C(=O)N2CCN(Cc3nc(-c4ccc(F)cc4)c(-c4nc(C(=O)NC(C)C)cs4)o3)CC2)c1` [Example 502], for which the IC50 is more than 1 µM.

The compound `COc1cc(Cl)ccc1C(=O)NCc1onc(-c2ccc(F)cc2)c1-c1nc(C(=O)NC(C)C)cs1` [Example 714] registered a half-maximal inhibitory concentration (IC50) of more than 1 µM. `CC(C)NC(=O)c1csc(-c2c(-c3ccc(F)cc3)noc2CNC(=O)c2ccccc2C=O)n1` [Example 607]: the IC50 is more than 1 µM. Still for that read-out and setting: the figure for `CC(C)NC(=O)c1csc(-c2oc(CN3CCN(C(=O)/C=C/c4ccccc4O)CC3)nc2-c2ccc(F)cc2)n1` [Example 403] is not above 1 µM; for `CCCCCc1ccc(C(=O)N2CCN(Cc3nc(-c4ccc(F)cc4)c(-c4nc(C(=O)NC(C)C)cs4)o3)CC2)cc1` [Example 494] it is more than 1 µM.

With `CC(C)NC(=O)c1csc(-c2oc(CNC(=O)CNC(=O)OC(C)(C)C)nc2-c2ccc(F)cc2)n1` [Example 201], the IC50 is more than 1 µM. On the same count and under the same terms, for `CC(C)NC(=O)c1csc(-c2oc(CN3CCN(C(=O)/C=C/c4cccc(O)c4)CC3)nc2-c2ccc(F)cc2)n1` [Example 405] the value was more than 1 µM; for `CC(C)NC(=O)c1csc(-c2c(-c3ccc(F)cc3)noc2CNC(=O)c2cccc(Oc3ccccc3)c2)n1` [Example 763], more than 1 µM. Same read-out and setting: for `CC(=O)Oc1ccccc1C(=O)NCc1onc(-c2ccc(F)cc2)c1-c1nc(C(=O)NC(C)C)cs1` [Example 691] the value was not above 1 µM; for `CC(C)NC(=O)c1csc(-c2oc(CNC(=O)c3c(Cl)cc(Cl)cc3Cl)nc2-c2ccc(F)cc2)n1` [Example 306], not above 1 µM.

In turn, `COc1cccc(O)c1C(=O)NCc1nc(-c2ccc(F)cc2)c(-c2nc(C(=O)NC(C)C)cs2)o1` [Example 186] had an IC50 of more than 1 µM.

Still in this experiment, the particulars now being: p38α kinase; Table 1 Biological Activity.
The compound `CC(C)NC(=O)c1csc(-c2c(-c3ccc(F)cc3)noc2CNc2ccc3c(c2)OCCO3)n1` [Example 1677] showed a half-inhibitory concentration (IC50) of more than 1 µM. Same read-out and setting: for `Cc1nc(-c2ccc(F)cc2)c(-c2nc(C(=O)Nc3ccccc3-n3cccc3)cs2)s1` [Example 2004] the value was more than 1 µM. For the compound `Cc1nc(-c2ccc(F)cc2)c(-c2nc(C(=O)NC3CCCCCC3)cs2)s1` [Example 1746], the IC50 was not above 1 µM. Still for that read-out and setting: for `CC(C)NC(=O)c1csc(-c2c(-c3ccc(F)cc3)n[nH]c2C2CCN(C(=O)c3cscn3)CC2)n1` [Example 833] the value was not above 1 µM; for `Cc1ccc(C)c(N2CCN(Cc3nc(-c4ccc(F)cc4)c(-c4nc(C(=O)NC(C)C)cs4)o3)CC2)c1` [Example 1268], more than 1 µM; for `CC(C)NC(=O)c1csc(-c2c(-c3ccc(F)cc3)n[nH]c2C2CCN(C(=O)C(C)c3ccc(O)cc3)CC2)n1` (stereo not drawn) [Example 897], more than 1 µM. Same read-out and setting: for `CC(C)NC(=O)c1csc(-c2oc(CN3CCN(c4cccc(C(F)(F)F)c4)CC3)nc2-c2ccc(F)cc2)n1` [Example 1297] the value was more than 1 µM. Same read-out and setting: the figure for `Cc1nc(-c2ccc(F)cc2)c(-c2nc(C(=O)N3CCCCC3CO)cs2)s1` (stereo not drawn) [Example 1864] is more than 1 µM. For `Cc1ccc(NCc2onc(-c3ccc(F)cc3)c2-c2nc(C(=O)NC(C)C)cs2)cc1Cl` [Example 1668], the half-inhibitory concentration (IC50) is more than 1 µM.

On to `Cc1ccc([C@@H](C)NC(=O)c2csc(-c3sc(C)nc3-c3ccc(F)cc3)n2)cc1` [Example 1771], for which the IC50 was more than 1 µM. Same read-out and setting: for `Cc1nc(-c2ccc(F)cc2)c(-c2nc(C(=O)Nc3ccc(F)cc3C(F)(F)F)cs2)s1` [Example 2013] the value was more than 1 µM; for `CC(C)NC(=O)c1csc(-c2oc(CNCC3CC3)nc2-c2ccc(F)cc2)n1` [Example 1060], more than 1 µM; for `CC(C)NC(=O)c1csc(-c2c(-c3ccc(F)cc3)noc2CN2CCN(c3ccccc3)CC2)n1` [Example 1567], more than 1 µM. Consider `COc1ccc(NCc2onc(-c3ccc(F)cc3)c2-c2nc(C(=O)NC(C)C)cs2)cc1OC` [Example 1379], for which the IC50 was more than 1 µM. `CNCc1onc(-c2ccc(F)cc2)c1-c1nc(C(=O)NC(C)C)cs1` [Example 1382] showed an IC50 of more than 1 µM. Consider `COc1cc(CN(C)Cc2onc(-c3ccc(F)cc3)c2-c2nc(C(=O)NC(C)C)cs2)cc(OC)c1OC` [Example 1611], for which the IC50 was more than 1 µM. The same measure, in the same setting: for `CC(=O)Nc1ccc(NCc2nc(-c3ccc(F)cc3)c(-c3nc(C(=O)NC(C)C)cs3)o2)cc1` [Example 1351] the value was more than 1 µM; for `CC(C)NC(=O)c1csc(-c2c(-c3ccc(F)cc3)n[nH]c2C2CCN(C(=O)c3cc(Cl)ccc3O)CC2)n1` [Example 910], more than 1 µM; for `Cc1nc(-c2ccc(F)cc2)c(-c2nc(C(=O)Nc3ccc4ncsc4c3)cs2)s1` [Example 1999], more than 1 µM. Same read-out and setting: the figure for `Cc1nc(-c2ccc(F)cc2)c(-c2nc(C(=O)NCc3ccc(F)cc3F)cs2)s1` [Example 1789] is not above 1 µM. With `CCOc1ccc(OCC)c(NCc2onc(-c3ccc(F)cc3)c2-c2nc(C(=O)NC(C)C)cs2)c1` [Example 1691], the IC50 was more than 1 µM. The same measure, in the same setting: for `CCOC(=O)N1CCC(NC(=O)c2csc(-c3c(-c4ccc(F)cc4)n[nH]c3C3CCNCC3)n2)CC1` [Example 2141] the value was more than 1 µM; for `Cc1nc(-c2ccc(F)cc2)c(-c2nc(C(=O)NC3CCCc4ccccc43)cs2)s1` (stereo not drawn) [Example 1996], more than 1 µM. With `COc1cc(OC)c(C(=O)N2CCC(c3[nH]nc(-c4ccc(F)cc4)c3-c3nc(C(=O)NC(C)C)cs3)CC2)cc1OC` [Example 998], the IC50 was more than 1 µM. Still for that read-out and setting: the figure for `Cc1ccc(C)c(C(=O)N2CCC(c3[nH]nc(-c4ccc(F)cc4)c3-c3nc(C(=O)NC(C)C)cs3)CC2)c1` [Example 851] is more than 1 µM; for `CC(C)NC(=O)c1csc(-c2c(-c3ccc(F)cc3)noc2CN2CCN(CCN3CCOCC3)CC2)n1` [Example 1604] it is more than 1 µM; for `CC(C)NC(=O)c1csc(-c2c(-c3ccc(F)cc3)n[nH]c2C2CCN(C(=O)c3cc([N+](=O)[O-])ccc3O)CC2)n1` [Example 948] it is more than 1 µM. `CC(=O)Nc1cccc(C(=O)N2CCC(c3[nH]nc(-c4ccc(F)cc4)c3-c3nc(C(=O)NC(C)C)cs3)CC2)c1` [Example 925] registered an IC50 not above 1 µM. Take `CC(C)NC(=O)c1csc(-c2c(-c3ccc(F)cc3)n[nH]c2C2CCN(C(=O)C(C(C)C)N(C)C(=O)OC(C)(C)C)CC2)n1` (stereo not drawn) [Example 1032]: the IC50 was not above 1 µM. The same measure, in the same setting: for `CC(C)NC(=O)c1csc(-c2oc(CNc3ccc(F)cc3F)nc2-c2ccc(F)cc2)n1` [Example 1331] the value was more than 1 µM. On to `CC(C)CCNCc1nc(-c2ccc(F)cc2)c(-c2nc(C(=O)NC(C)C)cs2)o1` [Example 1070], for which the IC50 was more than 1 µM. Still for that read-out and setting: for `CC(C)NC(=O)c1csc(-c2c(-c3ccc(F)cc3)n[nH]c2C2CCN(C(=O)c3ccc(Br)cc3)CC2)n1` [Example 983] the value was more than 1 µM. On to `CC(C)NC(=O)c1csc(-c2c(-c3ccc(F)cc3)n[nH]c2C2CCN(C(=O)/C=C/c3cccc(O)c3)CC2)n1` [Example 882], for which the IC50 was more than 1 µM. The same measure, in the same setting: the figure for `CC(C)NC(=O)c1csc(-c2c(-c3ccc(F)cc3)noc2CNCC2CCCO2)n1` (stereo not drawn) [Example 1409] is more than 1 µM; for `CC(C)NC(=O)c1csc(-c2c(-c3ccc(F)cc3)n[nH]c2C2CCN(C(=O)c3ccncc3Cl)CC2)n1` [Example 870] it is not above 1 µM; for `Cc1nc(-c2ccc(F)cc2)c(-c2nc(C(=O)Nc3ccc(C)c(Cl)c3)cs2)s1` [Example 1993] it is more than 1 µM. In turn, `CC(C)NC(=O)c1csc(-c2oc(CN3CCN(CC4CCCCC4)CC3)nc2-c2ccc(F)cc2)n1` [Example 1255] displayed an IC50 of more than 1 µM. Still for that read-out and setting: for `CC(C)NC(=O)c1csc(-c2oc(CNCCOc3ccccc3)nc2-c2ccc(F)cc2)n1` [Example 1123] the value was more than 1 µM. For `CC(C)NC(=O)c1csc(-c2c(-c3ccc(F)cc3)n[nH]c2C2CCN(C(=O)c3ccccc3Cl)CC2)n1` [Example 865], the IC50 is more than 1 µM. In the case of `Cc1nc(-c2ccc(F)cc2)c(-c2nc(C(=O)NCc3ccccc3OC(F)(F)F)cs2)s1` [Example 1827], the half-inhibitory concentration (IC50) was not above 1 µM.

In turn, `CC(C)NC(=O)c1csc(-c2c(-c3ccc(F)cc3)noc2CNCc2ccc(Cl)c(Cl)c2)n1` [Example 1495] gave an IC50 of more than 1 µM. On to `CC(C)NC(=O)c1csc(-c2oc(CNC3CCCCC3)nc2-c2ccc(F)cc2)n1` [Example 1077], for which the half-inhibitory concentration (IC50) was more than 1 µM. Same read-out and setting: for `Cc1ccc(C(=O)N2CCC(c3[nH]nc(-c4ccc(F)cc4)c3-c3nc(C(=O)NC(C)C)cs3)CC2)cc1C` [Example 853] the value was more than 1 µM.

What is called IC50 is the concentration at which inhibition is half-maximal. A lower IC50 goes with inhibition by little substance.
